Test results: patent US20230416248A1, “COMPOUNDS AND USES THEREOF” (Foghorn Therapeutics Inc., priority 2020, published 2023)

Assays:
BRM = biological target: T1, BRM (Homo sapiens, UniProt P51531); test: ATPase catalytic activity of BRM, ADP-Glo in vitro biochemical assay; settings: for IC50: ADP-Glo ATPase assay, 30 nM BRM, 400 μM ATP; for Ratio*: ratio BRG1 IC50 / BRM IC50
T1 construct: made in house; host or cells: High Five insect cells
In short: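 Recombinant BRM (30 nM) hydrolysed 400 μM ATP with 20 nM salmon sperm DNA in pH 8 Tris buffer containing 20 mM MgCl2, 50 mM NaCl, 0.1% Tween-20 and 1 mM DTT, 1 h at room temperature. ADP formed was quantified by ADP-Glo luminescence.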

BRG-1 = biological target: T2, BRG-1 (Homo sapiens, UniProt P51532); test: ATPase catalytic activity of BRG-1, ADP-Glo in vitro biochemical assay; settings: ADP-Glo ATPase assay, 30 nM BRG-1, 400 μM ATP; read-out: BRG1 IC50
T2 construct: made in house; host or cells: High Five insect cells
In short: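 Biochemical ADP-Glo assay, BRG-1. Post-reaction: ATP depletion reagent, 40 min RT; ADP→ATP conversion/detection reagent, 60 min RT; luminescence read on plate luminometer.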

T1 sequence (P51531 whole entry): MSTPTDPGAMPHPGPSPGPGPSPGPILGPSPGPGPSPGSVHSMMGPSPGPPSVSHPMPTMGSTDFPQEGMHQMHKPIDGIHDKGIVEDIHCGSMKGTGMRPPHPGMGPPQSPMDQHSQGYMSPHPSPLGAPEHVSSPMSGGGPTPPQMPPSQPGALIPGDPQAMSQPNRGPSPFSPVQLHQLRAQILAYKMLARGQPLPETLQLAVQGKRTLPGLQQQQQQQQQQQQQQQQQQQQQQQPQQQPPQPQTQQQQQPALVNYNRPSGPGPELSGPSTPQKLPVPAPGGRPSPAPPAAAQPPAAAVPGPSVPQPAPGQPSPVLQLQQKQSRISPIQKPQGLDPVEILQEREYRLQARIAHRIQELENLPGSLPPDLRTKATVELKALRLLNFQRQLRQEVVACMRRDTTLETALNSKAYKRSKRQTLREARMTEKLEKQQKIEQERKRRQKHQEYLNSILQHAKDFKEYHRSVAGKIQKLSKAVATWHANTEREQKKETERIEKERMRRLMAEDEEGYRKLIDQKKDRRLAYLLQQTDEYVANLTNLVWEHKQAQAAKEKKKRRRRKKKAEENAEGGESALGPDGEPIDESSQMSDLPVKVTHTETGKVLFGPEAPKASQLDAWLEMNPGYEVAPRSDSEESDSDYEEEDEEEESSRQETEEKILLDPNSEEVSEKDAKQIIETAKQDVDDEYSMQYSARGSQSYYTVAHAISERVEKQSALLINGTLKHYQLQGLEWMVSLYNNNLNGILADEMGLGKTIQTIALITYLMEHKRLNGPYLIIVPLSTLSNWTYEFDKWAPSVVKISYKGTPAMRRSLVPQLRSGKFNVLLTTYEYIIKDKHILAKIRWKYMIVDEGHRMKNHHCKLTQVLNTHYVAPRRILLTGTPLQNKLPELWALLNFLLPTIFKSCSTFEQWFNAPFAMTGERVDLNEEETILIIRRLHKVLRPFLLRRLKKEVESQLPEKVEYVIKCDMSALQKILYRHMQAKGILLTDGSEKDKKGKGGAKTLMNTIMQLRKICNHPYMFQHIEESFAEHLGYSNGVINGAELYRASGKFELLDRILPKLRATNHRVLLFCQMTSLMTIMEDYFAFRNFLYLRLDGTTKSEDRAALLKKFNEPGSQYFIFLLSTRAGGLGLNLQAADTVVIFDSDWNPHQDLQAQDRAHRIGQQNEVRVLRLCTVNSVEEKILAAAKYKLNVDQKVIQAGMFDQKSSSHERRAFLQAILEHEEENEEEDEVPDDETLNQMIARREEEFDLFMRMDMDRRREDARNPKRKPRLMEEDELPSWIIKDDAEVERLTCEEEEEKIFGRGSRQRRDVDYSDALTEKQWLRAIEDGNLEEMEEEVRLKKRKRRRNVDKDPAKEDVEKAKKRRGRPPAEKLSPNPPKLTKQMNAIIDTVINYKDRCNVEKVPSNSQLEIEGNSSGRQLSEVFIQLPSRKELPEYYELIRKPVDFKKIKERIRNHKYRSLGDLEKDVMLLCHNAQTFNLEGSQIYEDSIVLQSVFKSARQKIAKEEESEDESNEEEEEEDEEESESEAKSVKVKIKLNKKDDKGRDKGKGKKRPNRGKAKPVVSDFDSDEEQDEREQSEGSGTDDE
T2 sequence (P51532 whole entry): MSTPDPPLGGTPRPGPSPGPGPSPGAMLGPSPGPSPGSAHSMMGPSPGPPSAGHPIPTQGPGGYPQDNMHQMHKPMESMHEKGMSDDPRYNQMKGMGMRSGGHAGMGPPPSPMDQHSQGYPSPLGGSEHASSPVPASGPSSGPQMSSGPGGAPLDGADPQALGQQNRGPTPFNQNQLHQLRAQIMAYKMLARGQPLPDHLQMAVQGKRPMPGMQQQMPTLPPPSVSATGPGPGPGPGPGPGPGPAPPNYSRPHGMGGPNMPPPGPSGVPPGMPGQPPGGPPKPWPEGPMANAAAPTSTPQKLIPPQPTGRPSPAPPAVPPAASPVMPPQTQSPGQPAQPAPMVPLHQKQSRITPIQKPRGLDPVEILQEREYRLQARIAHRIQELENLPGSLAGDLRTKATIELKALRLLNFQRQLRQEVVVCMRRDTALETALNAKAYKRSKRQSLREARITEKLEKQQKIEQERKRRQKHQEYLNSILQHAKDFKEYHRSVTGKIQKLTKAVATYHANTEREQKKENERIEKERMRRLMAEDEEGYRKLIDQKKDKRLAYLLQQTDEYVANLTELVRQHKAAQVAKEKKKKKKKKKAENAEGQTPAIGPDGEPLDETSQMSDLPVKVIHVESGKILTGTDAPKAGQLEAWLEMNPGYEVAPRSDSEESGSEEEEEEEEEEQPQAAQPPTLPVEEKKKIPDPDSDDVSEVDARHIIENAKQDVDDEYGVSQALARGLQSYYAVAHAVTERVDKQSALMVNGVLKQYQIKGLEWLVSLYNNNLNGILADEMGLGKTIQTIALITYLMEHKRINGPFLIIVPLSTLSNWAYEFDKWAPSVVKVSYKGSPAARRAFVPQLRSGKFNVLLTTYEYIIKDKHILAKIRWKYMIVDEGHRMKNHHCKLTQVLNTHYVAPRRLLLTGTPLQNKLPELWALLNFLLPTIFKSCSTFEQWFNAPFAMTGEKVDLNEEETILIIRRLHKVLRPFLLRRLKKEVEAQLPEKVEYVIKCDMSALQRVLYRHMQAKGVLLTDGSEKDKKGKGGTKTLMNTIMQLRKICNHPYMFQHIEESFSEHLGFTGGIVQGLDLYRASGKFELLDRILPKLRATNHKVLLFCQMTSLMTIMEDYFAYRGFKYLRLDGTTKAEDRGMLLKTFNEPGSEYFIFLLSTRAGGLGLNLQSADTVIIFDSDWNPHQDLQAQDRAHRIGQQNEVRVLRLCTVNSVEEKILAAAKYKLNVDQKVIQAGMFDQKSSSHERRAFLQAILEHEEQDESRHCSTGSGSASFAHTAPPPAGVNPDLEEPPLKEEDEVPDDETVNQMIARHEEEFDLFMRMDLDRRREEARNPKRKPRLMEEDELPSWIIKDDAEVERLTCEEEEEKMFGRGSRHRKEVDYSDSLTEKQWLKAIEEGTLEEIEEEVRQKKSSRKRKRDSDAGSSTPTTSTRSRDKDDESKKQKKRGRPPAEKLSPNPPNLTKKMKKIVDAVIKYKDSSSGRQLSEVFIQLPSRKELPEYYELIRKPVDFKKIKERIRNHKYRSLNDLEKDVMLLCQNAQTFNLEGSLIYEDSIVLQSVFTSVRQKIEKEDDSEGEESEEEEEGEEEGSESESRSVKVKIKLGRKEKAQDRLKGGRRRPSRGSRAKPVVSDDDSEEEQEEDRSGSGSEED

| Compound | IC50 (BRM) [µM] | Ratio* (BRM) | IC50 (BRG-1) [µM] |
| --- | --- | --- | --- |
| COc1cnc2c(c1)CCN2c1ccc2cnc(CNC(=O)c3ccc4c(c3)S(=O)(=O)CCOC4)cc2n1 [Compound 703] | 0.0368 | 8.10 | 0.298 |
| C[C@@H]1CN(c2cccc(-c3ccc4cnc(CNC(=O)c5ccc6c(c5)S(=O)(=O)CCC5(CC5)O6)cc4n3)n2)C[C@H](C)O1 [Compound 704] | 0.0911 | 23.18 | 2.11 |
| CO[C@H](C)COc1ccc2c(c1)N(c1ccc3cnc(CNC(=O)c4ccc5c(c4)S(=O)(=O)CCOC5)cc3n1)CCC2 [Compound 705] | 0.0043 | 13.63 | 0.0581 |
| CO[C@@H](C)COc1ccc2c(c1)N(c1ccc3cnc(CNC(=O)c4ccc5c(c4)S(=O)(=O)CCOC5)cc3n1)CCC2 [Compound 706] | 0.005 | 9.39 | 0.0469 |
| C[C@@H]1CN(c2ccnc(-c3ccc4cnc(CNC(=O)c5ccc6c(c5)S(=O)(=O)CCOC6)cc4c3)n2)C[C@H](C)O1 [Compound 707] | 0.0546 | 4.84 | 0.264 |
| C[C@@H]1CN(c2ccnc(-c3ccc4cnc(CNC(=O)c5ccc6c(c5)S(=O)(=O)[C@@H](C)COC6)cc4c3)n2)C[C@H](C)O1 [Compound 708] | 0.0529 | 17.15 | 0.907 |
| C[C@H]1COCc2ccc(C(=O)NCc3cc4nc(-c5cccc(N6C[C@H]7COC[C@H]7C6)n5)ccc4cn3)cc2S1(=O)=O [Compound 709] | 0.0376 | 11.57 | 0.436 |
| C[C@@H]1CN(c2cccc(-c3cnc4cnc(CNC(=O)c5ccc6c(c5)S(=O)(=O)[C@@H](C)COC6)cc4n3)n2)C[C@H](C)O1 [Compound 710] | 0.0298 | 5.13 | 0.153 |
| COCc1ccc2c(c1F)N(c1ccc3cnc(CNC(=O)c4ccc5c(c4)S(=O)(=O)CCOC5)cc3n1)CCC2 [Compound 711] | 0.0093 | 27.53 | 0.255 |
| CC1(c2cnc3c(c2)OCCN3c2ccc3cnc(CNC(=O)c4ccc5c(c4)S(=O)(=O)CCOC5)cc3n2)CC1 [Compound 712] | 0.0086 | 11.90 | 0.102 |
| CC1(c2ccc3c(n2)N(c2ccc4cnc(CNC(=O)c5ccc6c(c5)S(=O)(=O)CCOC6)cc4n2)CCO3)CC1 [Compound 713] | 0.0459 | 21.51 | 0.987 |
| COc1cc2c(cc1F)CCCN2c1ccc2cnc(CNC(=O)c3ccc4c(c3)S(=O)(=O)CCOC4)cc2n1 [Compound 714] | 0.0549 |  | 0.667 |
| [2H]C1([2H])OC([2H])([2H])[C@H](C)S(=O)(=O)c2cc(C(=O)NCc3cc4nc(-c5cccc(N6C[C@@H](C)O[C@@H](C)C6)n5)ccc4cn3)ccc21 [Compound 715] | 0.0054 | 4.12 | 0.0221 |
| COCC1CN(c2ccc3cnc(CNC(=O)c4ccc5c(c4)S(=O)(=O)CCOC5)cc3n2)c2ccccc2O1 (centres unmarked) [Compound 716] | 1.73 | 2.75 | 4.77 |
| [2H]C1([2H])OC([2H])([2H])[C@@H](C)S(=O)(=O)c2cc(C(=O)NCc3cc4nc(-c5cccc(N6C[C@@H](C)O[C@@H](C)C6)n5)ccc4cn3)ccc21 [Compound 717] | 0.077 | 5.61 | 0.432 |
| COc1ccc(F)c2c1CCCN2c1ccc2cnc(CNC(=O)c3ccc4c(c3)S(=O)(=O)CCOC4)cc2n1 [Compound 718] | 0.0105 | 9.44 | 0.0996 |
| COc1cc2c(cn1)N(c1ccc3cnc(CNC(=O)c4ccc5c(c4)S(=O)(=O)CCOC5)cc3n1)CCC2 [Compound 719] | 0.0426 | 13.62 | 0.58 |
| O=C(NCc1cc2nc(N3CCc4cc(C(F)F)cnc43)ccc2cn1)c1ccc2c(c1)S(=O)(=O)CCOC2 [Compound 720] | 0.0436 | 5.30 | 0.231 |
| O=C(NCc1cc2nc(N3CCOc4ccc(C5CCC5)nc43)ccc2cn1)c1ccc2c(c1)S(=O)(=O)CCOC2 [Compound 722] | 0.0088 | 81.47 | 0.716 |
| O=C(NCc1cc2nc(N3CCC4(CCC4)c4cccnc43)ccc2cn1)c1ccc2c(c1)S(=O)(=O)CCOC2 [Compound 723] | 0.0402 | 16.58 | 0.667 |
| CS(=O)(=O)c1cc(C(=O)NCc2cc3nc(N4CCCc5cc(C6CC6)cnc54)ccc3cn2)cnc1C(F)F [Compound 724] | 0.122 | 18.41 | 2.25 |
| O=C(NCc1cc2nc(N3CCCc4cc(C5CC5)ncc43)ccc2cn1)c1ccc2c(c1)S(=O)(=O)CCOC2 [Compound 725] | 0.0268 | 10.95 | 0.294 |
| O=C(NCc1cc2nc(N3CCCc4cc(F)c(OCC5COC5)cc43)ccc2cn1)c1ccc2c(c1)S(=O)(=O)CCOC2 [Compound 726] | 0.0247 | 11.83 | 0.292 |

| Compound | IC50 (BRM) [µM] | Ratio* (BRM) | IC50 (BRG-1) [µM] |
| --- | --- | --- | --- |
| O=C(NCc1cc2nc(N3CCc4cc(F)cnc43)ccc2cn1)c1ccc2c(c1)S(=O)(=O)CCOC2 [Compound 727] | 0.103 | 11.84 | 1.22 |
| Cc1cc(C(=O)NCc2cc3cc(-c4cccc(N5C[C@@H](C)O[C@@H](C)C5)n4)ccc3cn2)cc2c1COCCS2(=O)=O [Compound 728] | 0.0123 | 2.42 | 0.0296 |
| O=C(NCc1cc2cc(N3CCOc4ccc(C5CC5)nc43)ccc2cn1)c1ccc2c(c1)S(=O)(=O)CCOC2 [Compound 729] | 0.0446 | 42.98 | 1.92 |
| O=C(NCc1cc2nc(N3CCCc4ccc(C5CCC5)nc43)ccc2cn1)c1ccc2c(c1)S(=O)(=O)CCOC2 [Compound 730] | 0.0164 | 49.65 | 0.814 |
| COc1cc(C)nc2c1CCCN2c1ccc2cnc(CNC(=O)c3ccc4c(c3)S(=O)(=O)CCOC4)cc2n1 [Compound 732] | 0.0093 | 9.97 | 0.0925 |
| COc1cccc2c1CCCN2c1ccc2cnc(CNC(=O)c3cnc4c(c3)S(=O)(=O)[C@@H](C)COC4)cc2n1 [Compound 733] | 0.0094 | 8.96 | 0.0842 |
| Cc1cnc2c(c1)C1(CCN2c2ccc3cnc(CNC(=O)c4ccc5c(c4)S(=O)(=O)CCOC5)cc3n2)CC1 [Compound 734] | 0.0063 | 13.67 | 0.0862 |
| O=C(NCc1cc2nc(N3CCCc4ccc(OCC5CCO5)cc43)ccc2cn1)c1ccc2c(c1)S(=O)(=O)CCOC2 (centres unmarked) [Compound 735] | 0.0082 | 13.49 | 0.11 |
| O=C(NCc1cc2nc(N3CCCc4cccc(Cl)c43)ccc2cn1)c1ccc2c(c1)S(=O)(=O)CCOC2 [Compound 736] | 1.14 | 3.42 | 3.9 |
| O=C(NCc1cc2nc(N3CCOc4cc(F)cnc43)ccc2cn1)c1ccc2c(c1)S(=O)(=O)CCOC2 [Compound 737] | 0.0104 | 21.91 | 0.227 |
| C[C@H]1COCc2ccc(C(=O)NCc3cc4nc(N5CCOc6cc(F)cnc65)ccc4cn3)cc2S1(=O)=O [Compound 738] | 0.0132 | 32.33 | 0.428 |
| O=C(NCc1cc2nc(N3CCOc4cc(C5CC5)ncc43)ccc2cn1)c1ccc2c(c1)S(=O)(=O)CCOC2 [Compound 739] | 0.0127 | 17.37 | 0.221 |
| [2H]C1([2H])OC([2H])([2H])[C@H](C)S(=O)(=O)c2cc(C(=O)NCc3cc4nc(N5CCOc6cc(C)cnc65)ccc4cn3)ccc21 [Compound 741] | 0.0066 | 14.12 | 0.0934 |
| O=C(NCc1cc2nc(N3CCN(CC(F)F)c4cccnc43)ccc2cn1)c1ccc2c(c1)S(=O)(=O)CCOC2 [Compound 742] | 0.024 | 19.92 | 0.478 |
| Cc1ccnc2c1CCN2c1ccc2cnc(CNC(=O)c3ccc4c(c3)S(=O)(=O)CCOC4)cc2n1 [Compound 743] | 0.0275 | 4.35 | 0.12 |
| O=C(NCc1cc2nc(N3CCn4ncc(C5CC5)c4C3)ccc2cn1)c1ccc2c(c1)S(=O)(=O)CCOC2 [Compound 744] | 0.432 | 9.13 | 3.94 |
| O=C(NCc1cc2nc(N3CCCc4ccc(OCC5(F)COC5)cc43)ccc2cn1)c1ccc2c(c1)S(=O)(=O)CCOC2 [Compound 745] | 0.0045 | 6.27 | 0.0279 |
| O=C(NCc1cc2nc(N3CCCc4ccc(OC5CC5)nc43)ccc2cn1)c1ccc2c(c1)S(=O)(=O)CCOC2 [Compound 746] | 0.0222 | 25.51 | 0.567 |
| O=C(NCc1cc2nc(N3CCCc4ccc(OCC5CCCO5)cc43)ccc2cn1)c1ccc2c(c1)S(=O)(=O)CCOC2 (centres unmarked) [Compound 747] | 0.0088 | 13.42 | 0.118 |
| Cc1cnc2c(c1)N(C1CC1)CCN2c1ccc2cnc(CNC(=O)c3ccc4c(c3)S(=O)(=O)CCOC4)cc2n1 [Compound 748] | 0.0121 | 12.75 | 0.154 |
| Cc1ccc2c(c1)OCCN2c1ccc2cnc(CNC(=O)c3cnc4c(c3)S(=O)(=O)[C@@H](C)COC4)cc2n1 [Compound 749] | 0.0126 | 16.64 | 0.209 |
| COc1cc(F)cc2c1CCCN2c1ccc2cnc(CNC(=O)c3ccc4c(c3)S(=O)(=O)CCOC4)cc2n1 [Compound 750] | 0.004 | 4.62 | 0.0183 |
